How the values were obtained:
ACAT = molecular target: T1, ACAT (Mesocricetus auratus, UniProt A0A1U8BU94); experiment: ACAT inhibitory action (cholesteryl oleate formation from radio-labelled oleoyl coenzyme A, liver microsome); type: biochemical; details: hamster liver microsome; inhibition of cholesteryl oleate formation
T1 construct: each tissue specimen containing hamster liver microsome; from tissue; host or cells: hamster liver microsomes
T1 sequence (A0A1U8BU94 1-521): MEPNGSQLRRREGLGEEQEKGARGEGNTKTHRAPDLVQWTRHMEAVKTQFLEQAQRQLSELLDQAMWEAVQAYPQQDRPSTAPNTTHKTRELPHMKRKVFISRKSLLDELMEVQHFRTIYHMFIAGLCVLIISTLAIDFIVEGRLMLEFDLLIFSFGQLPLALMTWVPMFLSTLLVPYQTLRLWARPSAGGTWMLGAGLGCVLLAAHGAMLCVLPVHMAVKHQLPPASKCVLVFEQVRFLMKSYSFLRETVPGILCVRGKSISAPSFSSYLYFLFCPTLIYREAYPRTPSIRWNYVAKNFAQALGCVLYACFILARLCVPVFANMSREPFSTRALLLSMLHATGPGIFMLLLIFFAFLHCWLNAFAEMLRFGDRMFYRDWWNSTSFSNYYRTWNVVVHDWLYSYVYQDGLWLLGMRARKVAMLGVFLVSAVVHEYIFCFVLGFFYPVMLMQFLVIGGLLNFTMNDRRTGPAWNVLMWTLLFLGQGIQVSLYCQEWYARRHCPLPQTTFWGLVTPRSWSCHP
Procedure: The ACAT inhibitory action of the compounds of this invention was determined by the following method.
ACAT activity was determined by measuring the amount of ratio-active cholesteryl oleate formed from radio-labelled oleoyl coenzyme A in each tissue specimen containing hamster liver microsome. The reduction rates (%) in the amount of formation of cholesteryl oleate by the administration of the test compound in various concentrations (μM) as compared with as compared with the amount of formation in the control group to which no test compound was administrated were measured. The ACAT inhibitory action was evaluated by IC50, the concentration of the test compound necessary for inhibiting the activity of the enzyme by 50%, obtained from the reduction rates.

[1] = system: cholesterol level in the serum; experiment: effect of reducing a lipid level in blood (serum cholesterol) in hamsters fed diet containing 1% cholesterol and 0.5% cholic acid; type: in vivo, golden hamster (male); details: percent inhibition of serum cholesterol relative to control, 1 mg/10 ml water/kg orally once a day, blood taken on fifth day 3 h after final administration; for inhibition in vivo at 1 mg/kg: Mesocricetus auratus, po, once a day, read-out: Reduction of Cholesterol in Blood
Procedure: The effect of reducing a lipid level in blood by the action of the compounds according to the present invention was determined as follows:
Male golden hamsters weighing from 80 to 100 g were randomly divided into groups. The hamsters were first fed standard laboratory diets (solid feed MF-1 for mouse/rat/hamster, manufactured by Oriental yeast Industries, KK) for 3 days. Then, they were fed the experimental diet containing 1% cholesterol and 0.5% cholic acid ad libitum. At the same time, the compounds of the invention formulated in a shown dose (1 mg/10 ml water/kg) were administrated to the hamsters orally once a day at a determined time. Water was administrated orally to the hamsters of control group in an amount of 10 ml per 1 kg of body weight. On fifth day of administrating the compounds, the hamsters were anesthetized with nembutal (Nembutal injection, manufactured by Dainabbot) three hours after the final administration of the test compound, and a blood sample was taken from abdominal cava. The serum was separated from the sample by centrifuging.
The cholesterol level in the serum was determined by using a blood cholesterol measuring kit, Determina-TC5 manufactured by Kyowa Medix Co. The results are represented by percent inhibition (%) of cholesterol level in serum relative to that of the control group, and shown in the following Table 20.

[2] = system: cholesterol level in the serum; experiment: as above; type: in vivo, golden hamster (male); details: Mesocricetus auratus, po, 120 h, comparison compound; dose of 5 mg/kg p.o.; read-out: Reduction of Cholesterol in Blood

IC50 (ACAT) [nM] | Compound | inhibition in vivo at 1 mg/kg [1] [%] | other results
85 | CCC(CNC(=O)Nc1c(C(C)C)cccc1C(C)C)c1cccc2c1OCO2 (stereo not shown) [Example 3] |  | 
 | CCCCC(CNC(=O)Nc1c(C(C)C)cccc1C(C)C)c1ccc2c(c1)OCCCO2 (stereo not shown) [Example 26] | 40 | 
38 | CCCCCC(CNC(=O)Nc1c(C)cccc1C)c1cccc2c1OCO2 (stereo not shown) [Example 33, 1-(2-(2,3-methylenedioxyphenyl)heptyl)-3-(2,6-dimethylphenyl)urea] |  | 
 | CCCCC(CNC(=O)Nc1c(C(C)C)cccc1C(C)C)c1ccc2c(c1)OCO2 (single isomer, unassigned; (+)) [Example 61, (+)-1-(2-(3,4-methylenedioxyphenyl)-hexyl)-3-(2,6-diisopropylphenyl)urea] | 45 | 
28 | CC(C)c1cccc(C(C)C)c1NC(=O)NCC(c1cccc2c1OCO2)C(C)C (stereo not shown) [Example 4] |  | 
86 | CCCCCCCC(CNC(=O)Nc1c(C(C)C)cccc1C(C)C)c1cccc2c1OCO2 (stereo not shown) [Example 9] |  | 
 | CCCC(CCC)(CNC(=O)Nc1c(C(C)C)cccc1C(C)C)c1cccc2c1OCO2 [Example 30] | 18 | 
9 | CCCCC(CNC(=O)Nc1c(C(C)C)cccc1C(C)C)c1ccc2c(c1)OCO2 (stereo not shown) [Example 17] | 34 | 
13 | CCCCC(CNC(=O)Nc1c(C(C)C)cccc1C(C)C)c1ccc2c(c1)OCCO2 (stereo not shown) [Example 23] | 39 | 
 | CC(C)CCCC(CNC(=O)Nc1c(C(C)C)cccc1C(C)C)c1ccc2c(c1)OCO2 (stereo not shown) [Example 20] | 46 | 
 | CCCCCC(CNC(=O)Nc1c(C(C)C)cccc1C(C)C)c1cccc2c1OCO2 (stereo not shown) [Example 1, 1-(2-(2,3-methylenedioxyphenyl)heptyl)-3-(2,6-diisopropylphenyl)urea] | 34 | 
 | CCCC(CNC(=O)Nc1c(C(C)C)cccc1C(C)C)c1ccc2c(c1)OCO2 (stereo not shown) [Example 16] | 34 | 
11 | CCCCCCC(CNC(=O)Nc1c(C(C)C)cccc1C(C)C)c1cccc2c1OCO2 (stereo not shown) [Example 8] |  | 
 | CCCCCC(CCCCC)(CNC(=O)Nc1c(C(C)C)cccc1C(C)C)c1cccc2c1OCO2 [Example 31] | 16 | 
28 | CCCCC(CNC(=O)Nc1c(C(C)C)cccc1C(C)C)c1cccc2c1CCCC2 (single isomer, unassigned) [Example 66] |  | Reduction of Cholesterol in Blood [1]: 40%
32 | CCCCCC(CNC(=O)Nc1c(CC)cccc1CC)c1cccc2c1OCO2 (stereo not shown) [Example 35] |  | 
 | CCCCCC(CNC(=O)Nc1c(C(C)C)cccc1C(C)C)c1ccc2c(c1)OCCO2 (stereo not shown) [Example 24] | 41 | 
 | CC(C)CCCC(CNC(=O)Nc1c(C(C)C)cccc1C(C)C)c1cccc2c1CCCC2 (stereo not shown) [Example 57] | 38 | 
 | CCCCC(CNC(=O)Nc1c(C(C)C)cccc1C(C)C)c1cccc2c1OCCO2 (stereo not shown) [Example 14] | 30 | 
 | CCCCCC(CNC(=S)Nc1c(C(C)C)cccc1C(C)C)c1cccc2c1OCO2 (stereo not shown) [Example 54, 1-(2-(2,3-methylenedioxyphenyl)heptyl)-3-(2,6-diisopropylphenyl)thiourea] | 21 | 

IC50 (ACAT) [nM] | Compound | inhibition in vivo at 1 mg/kg [1] [%] | other results
 | CCCCC(CNC(=O)Nc1c(C(C)C)cccc1C(C)C)c1ccc2c(c1)OCO2 (single isomer, unassigned) [Example 62] |  | Reduction of Cholesterol in Blood [1]: 33%
20 | CCCCCC(CNC(=O)Nc1c(OC)cccc1OC)c1cccc2c1OCO2 (stereo not shown) [Example 48, 1-(2-(2,3-methylenedioxyphenyl)heptyl)-3-(2,6-dimethoxyphenyl)urea] |  | 
 | CCCCCCC(CNC(=O)Nc1c(C(C)C)cccc1C(C)C)c1ccc2c(c1)OCCO2 (stereo not shown) [Example 25] | 39 | 
12 | CCCCCC(CNC(=O)Nc1c(C(C)C)cccc1C(C)C)c1cccc2c1OCO2 (single isomer, unassigned) [Example 64] |  | Reduction of Cholesterol in Blood [1]: 27%
 | CCCCCCC(CNC(=O)Nc1c(C(C)C)cccc1C(C)C)c1ccc2c(c1)OCO2 (stereo not shown) [Example 19] | 23 | 
5 | CCCCCC(CNC(=O)Nc1c(C(C)C)cccc1C(C)C)c1cccc2c1OCO2 (single isomer, unassigned) [Example 63] |  | Reduction of Cholesterol in Blood [1]: 56%
34 | CCCCCC(CNC(=O)Nc1c(Cl)cccc1Cl)c1cccc2c1OCO2 (stereo not shown) [Example 34, 1-(2-(2,3-methylenedioxyphenyl)heptyl)-3-(2,6-dichlorophenyl)urea] |  | 
56 | CCCC(CNC(=O)Nc1c(C(C)C)cccc1C(C)C)c1cccc2c1OCO2 (stereo not shown) [Example 5] |  | 
4 | CCCCCC(CNC(=O)Nc1c(C(C)C)cccc1C(C)C)c1cccc2c1CCCC2 (stereo not shown) [Example 56] | 42 | 
5 | CCCCCC(C)(CNC(=O)Nc1c(C(C)C)cccc1C(C)C)c1cccc2c1OCO2 (stereo not shown) [Example 29] | 61 | 
 | CCCCC(CNC(=O)Nc1c(C(C)C)cccc1C(C)C)c1cccc2c1OCO2 (stereo not shown) [Example 6] | 40 | 
 | CCCCCC(CNC(=O)Nc1c(C(C)C)cccc1C(C)C)c1ccc2c(c1)OCO2 (stereo not shown) [Example 18] | 33 | 
32 | CCC(CC)(CNC(=O)Nc1c(C(C)C)cccc1C(C)C)c1cccc2c1OCO2 [Example 11] | 31 | 
26 | CCCCCC(CNC(=O)Nc1c(CC)cccc1C(C)CC)c1cccc2c1OCO2 (stereo not shown) [Example 36] |  | 
 | CC(C)c1cccc(C(C)C)c1NC(=O)NCC1(c2cccc3c2OCO3)CCCCC1 [Example 13] | 19 | 
 | CCCCC(CNC(=O)Nc1c(C(C)C)cccc1C(C)C)c1cc(OC)c2c(c1)OCO2 (stereo not shown) [Example 52, 1-(2-(3,4-methylenedioxy-5-methoxyphenyl)hexyl)-3-(2,6-diisopropylphenyl)urea] | 15 | 
 | CC(C)c1cccc(C(C)C)c1NC(=O)NCC1(c2cccc3c2OCO3)CCCC1 [Example 12] | 10 | 
 | CC(C)c1cccc(C(C)C)c1NC(=O)NCC(c1ccccc1)C(C)(C)C (stereo not shown) [Comparison, 1-(3,3-dimethyl-2-phenylbutyl)-3-(2,6-diisopropylphenyl)urea] |  | inhibition in vivo at 5 mg/kg [2]: 5%
 | CCCCC(CNC(=O)Nc1c(C(C)C)cccc1C(C)C)c1cccc2c1CCCC2 (stereo not shown) [Example 55, 1-(2-(2,3-tetramethylenephenyl)hexyl)-3-(2,6-diisopropylphenyl)urea] | 35 | 
12 | CCCCC(CNC(=O)Nc1c(C(C)C)cccc1C(C)C)c1cccc2c1CCCC2 (single isomer, unassigned) [Example 65] | 44 | 

— US5202351A, “1-phenylalkyl-3-phenylurea derivative” (Mitsubishi Kasei Corporation, priority 1990, dated 1993)
